The subject of assay [1] is BHK. As to the kind of experiment: Modulation of CFTR F508 deletion mutant expressed in BHK cells assessed as increase in forskolin-stimulated iodine influx at 10 uM after 5 mins […] (reference value: 1.4 +/- 0.4 nM/s). It counts as cell-based. Background: Patch clamp records ionic current or voltage across a cell membrane.
Assay [2] relates to Cystic fibrosis transmembrane conductance regulator (Homo sapiens), P13569 [G551D]. As to the kind of experiment: Modulation of C-terminal His10-tagged CFTR G551D mutant in liposomes of egg phosphatidylcholine assessed as increase in iodine influx at 10 uM after 5 mins […] in presence of protein kinase A and valinomycin relative to control.

The structures appear in SMILES notation.

Sequence of Cystic fibrosis transmembrane conductance regulator (Homo sapiens), P13569 [G551D] (P13569 whole entry G551D): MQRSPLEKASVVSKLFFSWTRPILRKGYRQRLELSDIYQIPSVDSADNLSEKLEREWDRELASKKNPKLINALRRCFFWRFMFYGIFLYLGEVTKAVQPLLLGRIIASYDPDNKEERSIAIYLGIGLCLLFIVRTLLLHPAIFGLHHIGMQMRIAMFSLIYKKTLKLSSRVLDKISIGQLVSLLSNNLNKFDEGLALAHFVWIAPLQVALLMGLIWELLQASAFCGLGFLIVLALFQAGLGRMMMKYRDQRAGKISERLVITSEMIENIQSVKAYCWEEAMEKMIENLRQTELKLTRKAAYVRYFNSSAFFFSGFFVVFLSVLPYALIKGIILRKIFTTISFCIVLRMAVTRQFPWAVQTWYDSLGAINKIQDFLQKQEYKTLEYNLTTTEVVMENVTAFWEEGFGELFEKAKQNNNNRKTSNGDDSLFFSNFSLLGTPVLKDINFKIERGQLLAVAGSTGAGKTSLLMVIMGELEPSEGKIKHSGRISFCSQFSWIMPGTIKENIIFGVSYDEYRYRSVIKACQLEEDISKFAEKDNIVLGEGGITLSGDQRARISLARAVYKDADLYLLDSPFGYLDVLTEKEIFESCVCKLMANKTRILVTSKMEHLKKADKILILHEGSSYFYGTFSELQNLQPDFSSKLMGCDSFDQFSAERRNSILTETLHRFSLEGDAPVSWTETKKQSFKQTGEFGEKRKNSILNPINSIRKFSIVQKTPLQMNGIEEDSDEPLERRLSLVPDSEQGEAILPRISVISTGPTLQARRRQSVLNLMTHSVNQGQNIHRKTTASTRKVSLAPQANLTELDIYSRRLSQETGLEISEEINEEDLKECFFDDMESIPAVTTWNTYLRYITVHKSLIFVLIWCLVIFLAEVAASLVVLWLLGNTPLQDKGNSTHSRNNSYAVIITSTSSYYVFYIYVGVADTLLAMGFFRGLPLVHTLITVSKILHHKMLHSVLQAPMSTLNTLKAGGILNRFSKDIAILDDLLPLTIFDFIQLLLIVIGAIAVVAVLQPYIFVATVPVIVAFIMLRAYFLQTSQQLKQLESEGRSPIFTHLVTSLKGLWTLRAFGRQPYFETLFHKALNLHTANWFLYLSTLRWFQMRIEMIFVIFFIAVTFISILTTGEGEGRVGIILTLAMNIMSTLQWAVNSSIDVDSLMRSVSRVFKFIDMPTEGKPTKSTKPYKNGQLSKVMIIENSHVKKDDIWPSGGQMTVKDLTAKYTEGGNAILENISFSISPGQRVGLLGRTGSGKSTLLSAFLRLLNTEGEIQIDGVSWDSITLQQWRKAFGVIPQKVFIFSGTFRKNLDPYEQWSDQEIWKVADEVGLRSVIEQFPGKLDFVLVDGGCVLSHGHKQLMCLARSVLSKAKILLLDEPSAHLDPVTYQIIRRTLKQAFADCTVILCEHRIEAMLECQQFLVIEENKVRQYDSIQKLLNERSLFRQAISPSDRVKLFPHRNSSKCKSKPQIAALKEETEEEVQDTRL

Consider `Cc1ccc(O)c(-c2cc(-c3ccc(C#CCNS(=O)(=O)c4cccc5c(N(C)C)cccc45)cc3)[nH]n2)c1`, for which the Activity in assay [1] amounted to 1.7 nM/s; in assay [2], 11.2 nM/s.
In the case of `Cc1ccc(O)c(-c2cc(-c3ccccc3)[nH]n2)c1`, the Activity was found to be 9.9 nM/s in assay [1] and 16.9 nM/s in assay [2].
As to `Cc1ccc(O)c(-c2cc(-c3ccc(N)cc3)[nH]n2)c1`, the Activity in assay [1] amounted to 5.1 nM/s.
Turning to `Cc1ccc(O)c(-c2cc(-c3ccc(N=[N+]=[N-])cc3)[nH]n2)c1`, in assay [1], the Activity was 5.1 nM/s.
`Cc1ccc(O)c(-c2cc(-c3ccc([N+](=O)[O-])cc3)[nH]n2)c1`: the Activity in assay [1] stood at 5.1 nM/s.
On the same count and under the same terms, to `Cc1ccc(O)c(-c2cc(-c3ccc(I)cc3)[nH]n2)c1` belongs 5.1 nM/s.

The values are drawn from ChEMBL document CHEMBL1938362, “Synthesis and properties of molecular probes for the rescue site on mutant cystic fibrosis transmembrane conductance regulator” (J Med Chem, 2011).
